What is called solubility is the concentration that dissolves in the medium under given conditions.

The values below come from patent US11957792B2, “Taste-masked pharmaceutical compositions containing diclofenac” (GLATT AG, priority 2012, dated 2024).

In brackets after ≈: the same amount, converted by molar mass.

Data set [1] is described as follows: Equilibrium solubility, saturation shake-flask method. In kind it is physicochemical. The conditions noted are these: 37 °C, thermodynamic from solid, mean ± SD (n=3). As to the method:
The solubility of diclofenac free acid, sodium and potassium was comparatively evaluated in media reflecting the oral way of administration, as e.g. with different pH values. The equilibrium solubility was determined using the saturation shake-flask method. Briefly, an excess amount of drug was added into the different media maintained at 37±0.5° C. and shaken for at least 24 hours. After equilibrium was reached, the excess of solid was removed and the diclofenac concentration in the supernatant solutions was determined by HPLC.

Data set [2] in a line: Agglomerate formation at pH 1.1 (such as gastric fluid). The format is physicochemical.

`O=C(O)Cc1ccccc1Nc1c(Cl)cccc1Cl` [Diclofenac acid, 2-[(2,6-Dichlorophenyl)amino]benzeneacetic acid]: the solubility was 2.49 ± 0.15 µg/mL (≈ 8.41 µM) in data set [1] (0.1N HCl, pH 1.1, simulated gastric fluid, 0.1N HCl pH 1.1) and 1.72 ± 0.01 µg/mL (≈ 5.81 µM) in data set [1] (simulated gastric fluid, pH 1.6, simulated gastric fluid, Simulated gastric fluid pH 1.6). In addition, the formation of agglomerates entry in data set [2] is “not diclofenac acid form agglomerates”. In the case of `O=C(O)Cc1ccccc1Nc1c(Cl)cccc1Cl` [Diclofenac potassium], the formation of agglomerates entry in data set [2] is on record as “form agglomerates”. Turning to `O=C(O)Cc1ccccc1Nc1c(Cl)cccc1Cl` [Diclofenac sodium], the formation of agglomerates entry in data set [2] was “form agglomerates”.
